Laboratory results reported in a melting point compilation (Tetko et al.).
Starred links: 1 amine or outer side, 2 acyl side, 3 side chain; linkers in the order of their positions; H or OH if unused. Positions of bridges follow the written chain, without caps; N, C: chain ends. Non-standard residues stand in square brackets, D forms with d. Residues, ends and D or L forms follow the SMILES beside them. X6 = CCC(C)C(N[*:1])C(O)CC(=O)OC(C(=O)C(C)C(=O)[*:2])C(C)C; NMeY = CN[CH](Cc1ccc(O)cc1)C(=O)O; NMeL = CN[CH](CC(C)C)C(=O)O

| Structure (SMILES) | melting point [°C] |
| --- | --- |
| CC1c2cc(C(C)(C)C)cc(C(C)(C)C)c2OP(OP2Oc3c(cc(C(C)(C)C)cc3C(C)(C)C)C(C)c3cc(C(C)(C)C)cc(C(C)(C)C)c3O2)Oc2c1cc(C(C)(C)C)cc2C(C)(C)C (stereo not drawn) | 281 to 285 |
| C=C(C)[C@@H]1CC[C@]2(C(=O)N[C@H]3C[C@@H](C(=O)N4CCCCC4)C3(C)C)CC[C@]3(C)[C@H](CC[C@@H]4[C@@]5(C)CC[C@H](OC(=O)[C@@H]6C[C@H](C(=O)O)C6(C)C)C(C)(C)[C@@H]5CC[C@]43C)[C@@H]12 | 258 to 269 |
| CC1=NN(CCCc2ccccc2)C(=O)C1 | 103 to 105 |
| CC1(C)CC(C(O)CNc2nc(NCCCCCCNc3nc(NCC(O)C4CC(C)(C)NC(C)(C)C4)nc(NCC(O)C4CC(C)(C)NC(C)(C)C4)n3)nc(NCC(O)C3CC(C)(C)NC(C)(C)C3)n2)CC(C)(C)N1 (stereo not drawn) | 165 to 168 |
| Cc1ccc(S(=O)(=O)N2CCN(S(=O)(=O)c3ccc(C)cc3)CCN(S(=O)(=O)c3ccc(C)cc3)CC(C)N(S(=O)(=O)c3ccc(C)cc3)CCN(S(=O)(=O)c3ccc(C)cc3)CC2)cc1 (stereo not drawn) | 245 to 247 |
| CCCCCCCCNC1(NC(=O)c2ccccc2-c2ccc(CCCCCCCC)cc2)CC(CCCC)=C(NC(=O)c2ccccc2-c2ccc(CCCCCCCC)cc2)C2=C1C(=O)c1ccccc1C2=O (stereo not drawn) | 94 to 95 |
| CCCCCCCCCCCCc1ccc(N=Nc2ccc(C(N)CCNC(=O)CCN(CCC(=O)NCCN(C)c3ccc(N=Nc4ccc(CCCCCCCCCCCC)cc4[N+](=O)[O-])cc3)c3ccc(N=Nc4ccc(CCCCCCCCCCCC)cc4[N+](=O)[O-])cc3)cc2)c([N+](=O)[O-])c1 (stereo not drawn) | 127 to 129 |
| CC(C)CC1C(=O)OC(Cc2ccccc2)C(=O)N(C)C(CC(C)C)C(=O)OC(C)CN(C)C(CC(C)C)C(=O)OC(Cc2ccccc2)C(=O)N(C)C(CC(C)C)C(=O)OC(C)CN1C (stereo not drawn) | 130 to 132 |
| CC1N=C(c2ccccc2)c2cc(Cl)ccc2-n2c1nnc2C(CN(C)C)c1ccccc1 (stereo not drawn) | 200 to 203 |
| CCCCCCCC/C=C\CCCCCCCCNC(=O)OCCCCCCCCCCCCNC(=O)OC1CCN(C(=O)Oc2ccc(Oc3ccccc3)cc2)CC1 | 83 to 84 |
| NC(=O)c1c(C(=O)O)cnn1-c1ccccc1 | 234 to 235 |
| CCC(C)C1NC(=O)C(CC(C)C)NC(=O)C2CCCN2C(=O)C(C(C)C)NC(=O)C(Cc2ccc(O)cc2)NC(=O)C2CCCN2C(=O)C2CCCN2C(=O)C(C(C)CC)NC1=O (stereo not drawn) (cyclo(IIPPYVPL); configuration not given here) | 180 to 182 |
| CC(=O)OC1C(O)C(C)OC(OC2C(OC(=O)C3CCC4C(C3)OC3(CC(OC(=O)C=Cc5ccccc5)C(C)CO3)C43CO3)OC(C)C(O)C2OC(C)=O)C1O (stereo not drawn) | 125 to 127 |
| O=C(NCC(O)CO)c1c(I)c(C(=O)NCC(O)CO)c(I)c(N(CCCN(C(=O)CO)c2c(I)c(C(=O)NCC(O)CO)c(I)c(C(=O)NCC(O)CO)c2I)C(=O)CO)c1I (stereo not drawn) | 234 to 236 |
| CCCc1nc(OC)c(NC(=O)N2CCN(c3cc(OC)cc(OC)c3)CC2)cc1C(=O)NC(C)C(=O)Nc1cc(CO)cc(Nc2c3ccccc3nc3ccccc23)c1 (stereo not drawn) | 220 to 222 |
| CCCCCCCCCCCCNC(=O)c1cccc(Sc2c(Nc3cc(C(=O)NCCCCCCCCCCCC)ccc3Cl)nn(-c3c(Cl)cc(Cl)cc3Cl)c2OS(=O)(=O)c2ccccc2)c1 | 112 to 114 |
| O=C1COc2cc3c(cc2O1)C1(CO3)CN(Cc2cnccn2)c2ccccc21 (stereo not drawn) | 216 to 218 |
| COc1cc(OC)c(/C=C/C(c2ccc(OC)c(NC(=O)c3ccc(N)cc3)c2)S(=O)(=O)C(/C=C/c2c(OC)cc(OC)cc2OC)c2ccc(OC)c(NC(=O)c3ccc(N)cc3)c2)c(OC)c1 (stereo not drawn) | 137 to 140 |
| CN(C)CCCN1c2ccccc2Sc2ccc(Cl)cc21 | 57 |
| O=C1C(COCc2ccccc2)N(Cc2ccccc2)CCN(Cc2ccccc2)C(COCc2ccccc2)C(=O)N(Cc2ccccc2)CCN1Cc1ccccc1 (stereo not drawn) | 86 to 87 |
| O=C(NCCCN1CCOCC1)c1ccc(-c2ccc(Br)cc2)o1 | 83 to 100 |
| Oc1c(Br)c(Br)c(-c2c(Br)c(Br)c(O)c(Br)c2Br)c(Br)c1Br | 282 |
| CC(=O)OCC1OC(NC(=O)C2=CC=C(Cl)C(N)([N+](=O)[O-])C2)C(OC(C)=O)C(OC(C)=O)C1OC1OC(COC(C)=O)C(OC(C)=O)C(OC(C)=O)C1OC(C)=O (stereo not drawn) | 115 to 119 |
| N=S(=O)(c1ccccc1)c1cccnc1 (stereo not drawn) | 109 |
| CC(=O)N1C(C)(C)CC(OC(=O)CCn2c(=O)n(CCC(=O)OC3CC(C)(C)N(C(C)=O)C(C)(C)C3)c(=O)n(CCC(=O)OC3CC(C)(C)N(C(C)=O)C(C)(C)C3)c2=O)CC1(C)C | 126 to 128 |
| CC(C)(C)c1cc(C(C)(C)C)c(OP2OP(Oc3c(C(C)(C)C)cc(C(C)(C)C)cc3C(C)(C)C)OP(Oc3c(C(C)(C)C)cc(C(C)(C)C)cc3C(C)(C)C)O2)c(C(C)(C)C)c1 (stereo not drawn) | 226 to 244 |

Second part, the compound after the results:

| melting point [°C] | Structure (SMILES) |
| --- | --- |
| 179 to 181 | CC(C)C[C@H](NC(=O)[C@H](Cc1c[nH]cn1)NC(=O)[C@H](Cc1cccc2ccccc12)NC(=O)OCc1ccccc1)[C@@H](O)CC(=O)NN1CCN(c2cccc(C(F)(F)F)c2)CC1 |
| 86 to 88 | COc1cc(OC)c(/C=C/C(c2ccc(OC)c(NCCCC(=O)O)c2)S(=O)(=O)C(/C=C/c2c(OC)cc(OC)cc2OC)c2ccc(OC)c(NCCCC(=O)O)c2)c(OC)c1 (stereo not drawn) |
| 137 to 140 | Cc1ccc2c(c1)CC(=O)N2c1c(F)cc(F)cc1Cl |
| 223 to 224 | CC(C)(C)c1cc(-c2nnc(NC(=N)N)o2)cc(C(C)(C)C)c1O |
| 156 to 161 | CC(COC(=O)CCSCCSCCC(=O)OCC(C)(Cc1cc(C(C)(C)C)c(O)c(C(C)(C)C)c1)Cc1cc(C(C)(C)C)c(O)c(C(C)(C)C)c1)(Cc1cc(C(C)(C)C)c(O)c(C(C)(C)C)c1)Cc1cc(C(C)(C)C)c(O)c(C(C)(C)C)c1 |
| -108 | FC(F)OC(Cl)C(F)(F)F (stereo not drawn) |
| 141 to 143 | CC[C@H](C)CNC(=O)[C@@H](C[C@H](O)[C@H](CC1CCCCC1)NC(=O)[C@H](Cc1cscn1)NC(=O)[C@H](Cc1cccc2ccccc12)NC(=O)CN1CCOCC1)C(C)(C)O |
| 232 to 233 | CCCCCCCCCCCCc1ccsc1-c1ccc2c(c1)=C(C(C#N)C#N)c1cc3c(cc1=2)C(C(C#N)C#N)=c1cc(-c2sccc2CCCCCCCCCCCC)ccc1=3 |
| 247 to 249 | O=c1cc(O)cc(-c2ccc(Cl)cc2)o1 |
| 163 to 164 | CC(C)(O)CCOc1c(-c2ccc(S(N)(=O)=O)cc2)cnn(-c2ccc(F)cc2)c1=O |
| 198 to 200 | O=S(c1cc(C(F)(F)F)[nH]c1-c1ccc(Cl)cc1)C(F)(F)F (stereo not drawn) |
| 221 to 223 | CC(C)(C)c1cc(SC(Sc2cc(C(C)(C)C)c(O)c(C(C)(C)C)c2)C(Sc2cc(C(C)(C)C)c(O)c(C(C)(C)C)c2)Sc2cc(C(C)(C)C)c(O)c(C(C)(C)C)c2)cc(C(C)(C)C)c1O |
| 66 to 68 | CCCCCCCCCCCCCCCC(=O)C(O)C(O)(C(=O)c1cccc(NC(=O)C(CS)Cc2ccccc2)c1)C(O)C(=O)CCCCCCCCCCCCCCC (stereo not drawn) |
| 176 to 180 | COc1cc(OC)c(/C=C/C(c2ccc(OC)c(NC(C)C(=O)O)c2)S(=O)(=O)C(/C=C/c2c(OC)cc(OC)cc2OC)c2ccc(OC)c(NC(C)C(=O)O)c2)c(OC)c1 (stereo not drawn) |
| 82 to 84 | CCCCCCCCCCCCCCCC(=O)OCC(CSCC(NC(=O)OCc1cccc2c1Cc1ccccc1-2)C(=O)O)OC(=O)CCCCCCCCCCCCCCC (mixture of isomers) |
| 184 to 186 | CCc1nc(OC)c(NC(=O)N2CCN(c3cc(Cl)cc(Cl)c3)CC2)cc1C(=O)NC(C)C(=O)Nc1cc(CO)cc(Nc2c3ccccc3nc3ccccc23)c1 (stereo not drawn) |

| melting point [°C] | Structure (SMILES) |
| --- | --- |
| 51 to 53 | CCc1nc(C)c(C(=O)OCOC(=O)C(C)(C)C)n1Cc1ccc2oc(-c3ccccc3-c3nnn(C(c4ccccc4)(c4ccccc4)c4ccccc4)n3)c(Br)c2c1 |
| 114 to 117 | O=C(OCCCCCCOC1CCCCO1)c1ccc(Oc2c3c(c(Oc4ccc(C(=O)OCCCCCCOC5CCCCO5)cc4)c4ccccc24)C(=O)c2ccccc2C3=O)cc1 (stereo not drawn) |
| 158 | COCCOCOc1cc(C(ON=C(C(=O)O)c2csc(NC(c3ccccc3)(c3ccccc3)c3ccccc3)n2)C(=O)OC(c2ccccc2)c2ccccc2)cc(C#N)c1OCOCCOC (stereo not drawn) |
| 188 | Cn1cncc1C(O)(c1ccoc1)c1ccc2c(c1)c(-c1cccc(Cl)c1)cc1nnnn12 (stereo not drawn) |
| 111 to 113 | Cc1ccc(Cl)cc1C(N)=NO |
| 301 to 306 | CSc1ccc2c3c(cccc13)C(=O)N(O)C2=O |
| 195 to 200 | NC(=O)c1c(I)c(C(=O)N(CC(O)CO)CC(O)CO)c(I)c(N(CC(O)CO)C(=O)CO)c1I (stereo not drawn) |
| 124 to 126 | CCC(C)C1NC(=O)C(NC(=O)C(CC(C)C)N(C)C(C)=O)C(C)OC(=O)C(Cc2ccc(OC)cc2)N(C)C(=O)C2CCCN2C(=O)C(CC(C)C)NC(=O)C(C)C(=O)C(C(C)C)OC(=O)CC1O (stereo not drawn) (Ac-[NMeL]T[X6]LP[NMeY](Me); ester 2-C; configuration not given here) |
| 207 to 208 | CC(C)(Cc1ccc(S(=O)(=O)CCc2c(CCNS(=O)(=O)Cc3ccc(Cl)c(Cl)c3)n(C(c3ccccc3)c3ccccc3)c3ccc(Cl)cc23)cc1)C(=O)O |
| 71 to 73 | O=C(Oc1c(I)cc(I)cc1I)C(F)(F)C(F)(F)C(F)(F)C(F)(F)C(F)(F)C(F)(F)F |
| 199 to 200 | CCOCc1nc2c(N)nc3cc(Br)ccc3c2n1CC1CCN(C(=O)CC(C)C)CC1 |
| 101 to 111 | CCc1cn(C2OC(CNC(=O)C(C)Oc3cc(OC)c(Br)cc3Br)C(OC(=O)C(NC(=O)OC(C)(C)C)C(C)C)C2F)c(=O)[nH]c1=O (stereo not drawn) |
| 186 to 188 | C=CCOC1C(NC(C)=O)C(OCc2ccccc2)OC(COCc2ccccc2)C1OC1(N)OC(COCc2ccccc2)C(OCc2ccccc2)C(OCc2ccccc2)C1C(=O)OCC(Cl)(Cl)Cl (stereo not drawn) |
| 89 to 94 | CN=S(=O)(c1nc(-c2ccc(F)cc2)cs1)C(C)c1ccc(C(F)(F)F)nc1 (stereo not drawn) |
| 65 to 67 | CCCCCCCCCCCCCCCC(=O)C(O)C(O)(C(=O)c1cccc(NC(=O)C(CSC(C)=O)Cc2ccccc2)c1)C(O)C(=O)CCCCCCCCCCCCCCC (stereo not drawn) |
| 233 to 237 | Cc1cc(F)c(-n2nc(C(F)(F)F)nc2NC(=O)C(F)(F)F)cc1C(S(=O)C(c1cc(-n2nc(C(F)(F)F)nc2NC(=O)C(F)(F)F)c(F)cc1C)C(F)(F)F)C(F)(F)F (stereo not drawn) |
